Columns and labels:
granulation tissue = assay: Inhibitory effect on proliferation of granulation tissue (fertile egg method); type: in vivo, Babcock strain chickens (fertile eggs); conditions: for inhibitory effect on proliferation of granulation tissue (in words): fertile egg method
Description: The anti-inflammatory activity was tested by the inhibitory effect on proliferation of granulation tissue which is one of the tests for determining anti-inflammatory activity as follows:
Fertile eggs of Babcock strain chickens were incubated at 38° C. for 9 days. The shell and shell membrane were then removed according to the method of D'arcy et al (cf. D'arcy, P. F. et al, Brit. J. Pharmac. Chemother., 29, 378 (1967). A sterile filter paper disc (diameter: 9 mm) was implanted on the chorio-allantoic membrane and the opening in the shell was sealed with cellophane tape. The eggs were then reincubated for 4 days and at the end of this period, the filter paper disc with granulation tissue was dissected from the chorio-allantoic membrane and then dried at 60° C. for 12 hours. In order to assess the actual amount of granulation tissue present, the weight of filter paper disc which was used in this experiment was subtracted from the total weight of the disc plus granulation tissue.
The test compound was dissolved in an organic solvent (acetone) and 20 μl of the solution was applied on the each disc. The disc was dried and then used in this test. The mean weight of the granulation tissue in each group was compared with that of the control group which was treated with a vehicle alone.
Clavulone-1, clavulone-2, clavulone-3, clavulone-4 and clavulone-5 were used as the test compounds.

leukemia L-1210 cells = assay: Inhibitory activity on proliferation of leukemia L-1210 cells; type: cell-based, mice; conditions: Mus musculus, L1210, 96 h, 4 days, read-out: Growth Rate (%) (viable cells, control = 100); for activity at 0.1 µg/mL: 0.1 μg/ml; for activity at 0.4 µg/mL: 0.4 μg/ml; for activity at 1 µg/mL: 1.0 μg/ml; for activity at 0.2 µg/mL: 0.2 μg/ml
Description: (§1) Moreover, the anti-tumor activities of the clavulone derivatives (I) were tested by the inhibitory activity on propagation of leukemia L-1210 cells, DBA/MC fibrosarcoma cells, and B-16 melanoma cells in mice and also apothanasia effect of mice implanted with leukemia P388 cells and Ehrlich carcinoma cells as in the following experiments.
The test compounds (clavulone-1, -2 and -3) were each dissolved in ethanol and diluted with a medium (RPMI-1640) in a prescribed concentration. Said RPMI-1640 medium contained 10% by weight of fetal calf serum.
Leukemia L-1210 cells (cell concentration: 1×10^5 cells/ml) were inoculated in the RPMI-1640 medium containing the test compound (0.1 to 4.0 μg/ml) and cultured under the conditions of 5% CO2 in air, saturated humidity and at 37° C. for 4 days.
Immediately after the cultivation, the L-1210 cells were stained with trypan blue. Number of viable cells (i.e. cells which were not stained with trypan blue) was counted, and the number of viable cells was compared with that in the control group (no drug was added). The results are shown in Table 2, wherein the number of viable cells in the control group was counted as 100.

[1] = system: DBA/MC fibrosarcoma cells; assay: Inhibitory activity on proliferation of DBA/MC fibrosarcoma cells; type: cell-based, mice; conditions: Mus musculus, 48 hours, read-out: Inhibitory Rate (%); for inhibition at 3 µg/mL: 3.0 μg/ml; for inhibition at 20 µg/mL: 20.0 μg/ml; for inhibition at 30 µg/mL: 30.0 μg/ml
Description: as §1
The test compounds (clavulone derivatives) were each dissolved in ethanol and diluted with a phosphate-buffer physiological saline solution and further diluted with an eagle's MEM medium in a prescribed concentration. Said eagle's MEM medium contained 20% by weight of fetal calf serum and 0.4% by weight of lactalubumin hydrolysates.
DBA/MC Fibrosarcoma cells (cell concentration: 2.5×10^4 cells/ml) were floated on the eagle's MEM medium and cultured under the conditions of 5% CO2 in air, saturated humidity and at 37° C. for 24 hours. Thereafter, the medium was replaced with the above test compound-containing medium and then it was cultured under the same conditions for 48 hours.
Immediately after the cultivation, the DBA/MC cells were fised with methanol and stained with Giemsa solution. The stained cells were counted with a microscope, and the number of stained cells was compared with that of the control group (no test compound was added). The inhibitory rate was calculated by the following equation: [formula]

leukemia P388 cells = assay: Apothanasia effect in mice implanted with leukemia P388 cells; type: in vivo, BDFI male mice; conditions: intraperitoneal, once a day, 1st-4th and 7th-11th day
Description: Clavulone-2 was mixed with gum arabic in the ratio of 1.6:1 by weight and was mixed with a physiological saline solution in a prescribed concentration to give a test compound solution.
BDFI male mice (5 weeks old, weighing 22.0-24.4 g, 6 animals per group) were used.
Each mice was inoculated intraperitoneally with leukemia P388 cells (cell concentration: 1×10^7 cells/ml) in 0.2 ml Hank's solution. A solution of a test compound in a physiological saline solution was injected intraperitoneally once a day from the first day to 4th day and also from 7th day to 11th day after inoculation of the tumor cells. The control group was given with a vehicle (a physiological saline solution) alone in the same way.
The apothanasia effect of the test compound was estimated by comparing mean survival time between the medicated group and the control group by the following equation: [formula]

Ehrlich carcinoma cells = assay: Anti-tumor effect in mice implanted with Ehrlich carcinoma cells; type: in vivo, female ICR strain mice; conditions: for MST / Survivors on 60th day/number of mice in one group / I.L.S. (%): 1st-4th day; for I.L.S. (%): 25 or more = effective
Description: Six or twelve female ICR strain mice (6 weeks old, weighing 22.2-26.8 g) were used.
The test drug was prepared by mixing clavulone-2 with gum arabic, suspending the mixture in a sterilized saline solution in a concentration of clavulone-2 of 10, 18 or 25 mg/10 ml.
Ehrlich carcinoma cells were serially passaged in an ascites form in ICR strain mice. The tumor cells were harvested from ICR strain mice on 6th day after inoculation, washed with and resuspended in Hank's solution in a concentration of 5×10^5 cells/ml.
Tumor cells (1×10^5 cells/0.2 ml/mouse) were implanted intraperitoneally. The test drug (clavulone-2, 10 ml/kg) was injected intraperitoneally once a day from first to 4th day after the implantation of tumor cells. Control mice were injected with a saline solution in the same as above.
The anti-tumor effect of clavulone-2 was evaluated by means of I.L.S. (%) which was calculated by the following equation: [formula]

B-16 melanoma cells = assay: Anti-tumor effect on B-16 melanoma in mice; type: in vivo, C57BL/6 female mice; conditions: local injection
Description: C57BL/6 female mice (12 weeks old, weighing 18.4-21.6 g, each group: 10 animals) were used.
The test drug was prepared by dissolving clavulone-2 in ethanol and diluting with a saline solution in a concentration of clavulone-2 of 100 μg/ml.
B-16 melanoma cells were serially passaged in subcutaneously implanted form in C57BL/6 mice. The tumor cells were dissected out from C57BL/6 mice on 16th day after implantation, weighed, and mixed homogeneously with Hank's solution in a ratio of 1:9 by weight.
Tumor cells (2×10^5 cells/0.05 ml/mouse) were implanted subcutaneously. The test drug (clavulone-2, 10 μg/0.1 ml) was injected locally into tumor cell-implanted site for three weeks except the weekend. Control mice were injected with a vehicle (1% ethanol in saline solution) in the same as above.
After 21 days from the implantation of tumor cells, mice were killed by chloroform anethesia, and the tumor masses were removed and weighed. The anti-tumor effect of clavulone-2 was evaluated by means of growth inhibition rate calculated by the following equation:
Growth inhibition rate (%)=(1-T/C)×100
T: Mean tumor weight of mice treated with the test compound-containing solution
C: Mean tumor weight of mice treated with the vehicle solution.

[2] = 10 μg/0.1 ml, three weeks except weekend, 21 days

| Structure (SMILES) | Inhibitory rate (%) (granulation tissue; Dose 30, on filter paper disc) | Inhibitory rate (%) (granulation tissue; Dose 100, on filter paper disc) | inhibitory effect on proliferation of granulation tissue (in words) (granulation tissue) | activity at 0.1 µg/mL (leukemia L-1210 cells) [%] | activity at 0.4 µg/mL (leukemia L-1210 cells) [%] | activity at 1 µg/mL (leukemia L-1210 cells) [%] | inhibition at 3 µg/mL [1] [%] | inhibition at 20 µg/mL [1] [%] | further results |
| --- | --- | --- | --- | --- | --- | --- | --- | --- | --- |
| CCCCC/C=C\CC1(OC(C)=O)C=CC(=O)/C1=C/C=C\C(CCC(=O)OC)OC(C)=O (centres unmarked) [Clavulone-1] | 15.8 | 30.4 | showed the inhibitory effect on proliferation of granulation tissue | 100 | 24.7 | 0 | 50 | 100 | – |
| CCCCC/C=C\CC1(OC(C)=O)C=CC(=O)/C1=C/C=C/C(CCC(=O)OC)OC(C)=O (centres unmarked) [Clavulone-2] | 10.1 | 21.0 | showed the inhibitory effect on proliferation of granulation tissue | 61.5 | 16.9 | 0 | 0 | 100 | activity at 0.2 µg/mL (leukemia L-1210 cells): 55.4%; Apothanasia effect (%) (leukemia P388 cells; 4.0 mg/kg): 130%; Apothanasia effect (%) (leukemia P388 cells; 8.0 mg/kg): 130%; MST (Ehrlich carcinoma cells; 10 mg/kg, intraperitoneal): 26.5 days; Survivors on 60th day/number of mice in one group (Ehrlich carcinoma cells; 10 mg/kg, intraperitoneal): 2/6; I.L.S. (%) (Ehrlich carcinoma cells; 10 mg/kg, intraperitoneal): 23%; animals survived 60 days after implantation of tumor cells (Ehrlich carcinoma cells; 18 mg/10 ml/kg): 50%; MST (Ehrlich carcinoma cells; 18 mg/kg, intraperitoneal): 50.0 days; Survivors on 60th day/number of mice in one group (Ehrlich carcinoma cells; 18 mg/kg, intraperitoneal): 3/6; I.L.S. (%) (Ehrlich carcinoma cells; 18 mg/kg, intraperitoneal): 133%; activity against Ehrlich ascites tumor in vivo (in words) (Ehrlich carcinoma cells; intraperitoneal): high activity against Ehrlich ascites tumor in vivo; Growth inhibition rate (%) (B-16 melanoma cells; [2]): 73%; Mean tumor weight (g; ± S.E.) (B-16 melanoma cells; [2]): 0.882 ± 0.388 g; number of survivors 21th day after implantation of tumor cells (B-16 melanoma cells; 10 μg/0.1 ml, group of 10 animals): 10 |
| CCCCC/C=C\CC1(OC(C)=O)C=CC(=O)/C1=C\C=C\C(CCC(=O)OC)OC(C)=O (centres unmarked) [Clavulone-3] | 26.1 | 31.0 | showed the inhibitory effect on proliferation of granulation tissue | 87.5 | 17.2 | 0 | 0 | 100 | activity at 0.2 µg/mL (leukemia L-1210 cells): 52% |
| COC(=O)CCC(/C=C/C=C1/C(=O)C=CC1(C/C=C\CCCCCOC(C)=O)OC(C)=O)OC(C)=O (centres unmarked) [Clavulone-4] | 18.3 | 34.2 | showed the inhibitory effect on proliferation of granulation tissue | – | – | – | 0 | 100 | – |
| COC(=O)CCC(/C=C/C=C1\C(=O)C=CC1(C/C=C\CCCCCOC(C)=O)OC(C)=O)OC(C)=O (centres unmarked) [Clavulone-5] | 18.2 | 31.6 | showed the inhibitory effect on proliferation of granulation tissue | – | – | – | 0 | 100 | – |
| COC(=O)CCC(/C=C\C=C1\C(=O)C=CC1(C/C=C\CCCCCOC(C)=O)OC(C)=O)OC(C)=O (centres unmarked) [Clavulone-6] | – | – | – | – | – | – | 90 | 100 | inhibition at 30 µg/mL [1]: 100%; Growth inhibition rate (%) (B-16 melanoma cells; [2]): 73%; growth of B-16 melanoma in mice (in words) (B-16 melanoma cells; 21 days): regressed significantly |
| CCCCCCCCC1CCC(=O)C1CCCC(CCC(=O)OC)OC(C)=O (centres unmarked) [Clavulone-13] | – | – | – | – | – | – | 0 | – | inhibition at 30 µg/mL [1]: 100% |
